Experimental data taken from patent publication US5948814A, “Genistein for the treatment of cystic fibrosis” (priority 1998, dated 1999).

Key:
wt-CFTR [1] = assay: Patch clamp, cell-attached patches, Calu-3 cells; type: cell-based, human; conditions: 50 μM genistein on forskolin, n=15
Description: (§1) Downward deflections represent channel opening.

protein phosphatase = conditions: cited from earlier work
wt-CFTR [2] = target: wt-CFTR (Homo sapiens, UniProt P13569)
Method: FIGS. 9A and B are recordings of the effects of genistein on CFTR gating in excised inside-out patches from NIH/3T3-CFTR or NIH/3T3-ΔF508 cells. CFTR channels were activated by 10 μM forskolin +20 nM calyculin A before excision into an inside-out configuration. Presence of calyculin A helps to slow channel dephosphorylation. (A): continuous 14.5 minute recording of a patch containing wt-CFTR. Expanded traces are 22 seconds in length. ATP (500 μM) with or without 20 μM genistein was present as indicated. (B): 2 traces of 44 seconds in length of an excised inside-out patch with CFTR-ΔF508.
Electrophysiology: CFTR channel currents were recorded at room temperature (~22° C.) with a patch-clamp amplifier (EPC-9, Heka Electronic), filtered at 100 Hz with a built-in three-pole Bessel filter, and stored on videotapes. Data were subsequently refiltered at 25 Hz with an eight-pole Bessel filter (Frequency Device, Havervill, Mass.) and captured onto a hard disk at a sampling rate of 50 Hz. […] Patch-clamp electrodes were made from Corning 7052 glass capillaries (Warner Instrument, Hammed, Conn.). The pipette resistance was usually 3-5 M.OMEGA., and the seal resistance was >20 G.OMEGA.. The pipette solution contained (in mM) 140 N-methyl-D-glucamine chloride (NMDG-C1), 2 MgCl2, 5Ca Cl2, and 10 HEPES (pH 7.4 with NMDG). The superfusion solution contained (in mM) 150 […], 2 MgCl2, 1 EGTA, 5 glucose, and 5 HEPES (pH 7.4 with NaOH). In excised inside-out patch experiments, the bath solution contained (in mM) 130 MNDG-Cl, 10 EGTA, 10 HEPES, 20 tetraethylammonium chloride, 8 Tris, and 2 MgCl2 (pH 7.4 with NMDG). Pipette potential was held at 50 mV relative to the bath. Downward deflections represent channel opening.
Channels were first activated in cell-attached patches with forskolin plus calyculin A, a membrane-permeant phosphatase inhibitor [Suganuma et al., 1991]. Patches were then excised into an inside-out configuration.

ΔF508-CFTR = ΔF508-CFTR (Homo sapiens, UniProt P13569, DEL508-508); assay: Patch cramming, ΔF508-CFTR patch excised and crammed into NIH/3T3-CFTR cell; type: cell-based; design: expressed in transfected cells; host or cells: NIH/3T3 cells, stably transfected (NIH/3T3-ΔF508, gift of Dr. Richard Mulligan); conditions: ΔF508-CFTR crammed into NIH/3T3-CFTR cell; 10 μM forskolin, 50 μM genistein; n=2
ΔF508-CFTR, sequence (P13569 with tags, fused parts or gaps DEL508-508): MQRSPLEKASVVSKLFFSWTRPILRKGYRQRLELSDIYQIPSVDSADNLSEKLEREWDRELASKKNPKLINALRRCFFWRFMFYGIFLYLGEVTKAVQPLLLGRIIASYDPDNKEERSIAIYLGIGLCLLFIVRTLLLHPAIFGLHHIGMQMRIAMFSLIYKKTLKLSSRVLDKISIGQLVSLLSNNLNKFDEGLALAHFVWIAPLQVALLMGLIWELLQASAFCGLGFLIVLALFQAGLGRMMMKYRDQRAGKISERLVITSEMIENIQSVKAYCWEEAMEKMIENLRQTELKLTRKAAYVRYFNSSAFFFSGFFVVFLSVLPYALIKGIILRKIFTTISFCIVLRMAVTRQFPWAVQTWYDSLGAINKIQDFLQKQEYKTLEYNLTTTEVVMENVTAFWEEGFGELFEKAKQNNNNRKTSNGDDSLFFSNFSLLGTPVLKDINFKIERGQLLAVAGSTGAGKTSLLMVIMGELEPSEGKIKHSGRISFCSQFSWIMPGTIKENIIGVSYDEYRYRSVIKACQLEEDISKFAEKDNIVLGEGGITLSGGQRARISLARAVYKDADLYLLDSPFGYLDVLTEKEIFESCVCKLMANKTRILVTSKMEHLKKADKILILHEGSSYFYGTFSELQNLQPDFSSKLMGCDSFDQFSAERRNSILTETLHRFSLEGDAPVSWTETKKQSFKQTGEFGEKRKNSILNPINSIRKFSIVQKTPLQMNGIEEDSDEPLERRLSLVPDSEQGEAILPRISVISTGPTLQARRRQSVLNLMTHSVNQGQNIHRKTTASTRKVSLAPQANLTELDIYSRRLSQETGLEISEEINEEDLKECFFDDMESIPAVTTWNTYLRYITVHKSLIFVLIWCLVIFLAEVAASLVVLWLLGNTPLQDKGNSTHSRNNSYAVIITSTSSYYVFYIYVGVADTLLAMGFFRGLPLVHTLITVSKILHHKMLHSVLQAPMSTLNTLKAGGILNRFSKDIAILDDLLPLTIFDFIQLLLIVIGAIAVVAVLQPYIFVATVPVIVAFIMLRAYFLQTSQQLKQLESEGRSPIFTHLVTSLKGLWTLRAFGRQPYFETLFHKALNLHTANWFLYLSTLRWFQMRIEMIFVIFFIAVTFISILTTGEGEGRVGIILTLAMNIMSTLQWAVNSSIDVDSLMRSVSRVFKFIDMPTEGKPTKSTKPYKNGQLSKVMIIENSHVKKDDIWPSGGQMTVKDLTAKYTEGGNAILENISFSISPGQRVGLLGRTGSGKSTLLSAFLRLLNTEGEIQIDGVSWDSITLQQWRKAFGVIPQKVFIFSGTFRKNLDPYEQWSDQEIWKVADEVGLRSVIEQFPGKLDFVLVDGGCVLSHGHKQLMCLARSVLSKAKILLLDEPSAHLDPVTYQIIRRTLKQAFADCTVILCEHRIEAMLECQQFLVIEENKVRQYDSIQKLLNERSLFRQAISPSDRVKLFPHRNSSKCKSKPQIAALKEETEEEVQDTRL
Description: as §1

wt-CFTR (Homo sapiens, UniProt P13569), sequence (P13569 whole entry): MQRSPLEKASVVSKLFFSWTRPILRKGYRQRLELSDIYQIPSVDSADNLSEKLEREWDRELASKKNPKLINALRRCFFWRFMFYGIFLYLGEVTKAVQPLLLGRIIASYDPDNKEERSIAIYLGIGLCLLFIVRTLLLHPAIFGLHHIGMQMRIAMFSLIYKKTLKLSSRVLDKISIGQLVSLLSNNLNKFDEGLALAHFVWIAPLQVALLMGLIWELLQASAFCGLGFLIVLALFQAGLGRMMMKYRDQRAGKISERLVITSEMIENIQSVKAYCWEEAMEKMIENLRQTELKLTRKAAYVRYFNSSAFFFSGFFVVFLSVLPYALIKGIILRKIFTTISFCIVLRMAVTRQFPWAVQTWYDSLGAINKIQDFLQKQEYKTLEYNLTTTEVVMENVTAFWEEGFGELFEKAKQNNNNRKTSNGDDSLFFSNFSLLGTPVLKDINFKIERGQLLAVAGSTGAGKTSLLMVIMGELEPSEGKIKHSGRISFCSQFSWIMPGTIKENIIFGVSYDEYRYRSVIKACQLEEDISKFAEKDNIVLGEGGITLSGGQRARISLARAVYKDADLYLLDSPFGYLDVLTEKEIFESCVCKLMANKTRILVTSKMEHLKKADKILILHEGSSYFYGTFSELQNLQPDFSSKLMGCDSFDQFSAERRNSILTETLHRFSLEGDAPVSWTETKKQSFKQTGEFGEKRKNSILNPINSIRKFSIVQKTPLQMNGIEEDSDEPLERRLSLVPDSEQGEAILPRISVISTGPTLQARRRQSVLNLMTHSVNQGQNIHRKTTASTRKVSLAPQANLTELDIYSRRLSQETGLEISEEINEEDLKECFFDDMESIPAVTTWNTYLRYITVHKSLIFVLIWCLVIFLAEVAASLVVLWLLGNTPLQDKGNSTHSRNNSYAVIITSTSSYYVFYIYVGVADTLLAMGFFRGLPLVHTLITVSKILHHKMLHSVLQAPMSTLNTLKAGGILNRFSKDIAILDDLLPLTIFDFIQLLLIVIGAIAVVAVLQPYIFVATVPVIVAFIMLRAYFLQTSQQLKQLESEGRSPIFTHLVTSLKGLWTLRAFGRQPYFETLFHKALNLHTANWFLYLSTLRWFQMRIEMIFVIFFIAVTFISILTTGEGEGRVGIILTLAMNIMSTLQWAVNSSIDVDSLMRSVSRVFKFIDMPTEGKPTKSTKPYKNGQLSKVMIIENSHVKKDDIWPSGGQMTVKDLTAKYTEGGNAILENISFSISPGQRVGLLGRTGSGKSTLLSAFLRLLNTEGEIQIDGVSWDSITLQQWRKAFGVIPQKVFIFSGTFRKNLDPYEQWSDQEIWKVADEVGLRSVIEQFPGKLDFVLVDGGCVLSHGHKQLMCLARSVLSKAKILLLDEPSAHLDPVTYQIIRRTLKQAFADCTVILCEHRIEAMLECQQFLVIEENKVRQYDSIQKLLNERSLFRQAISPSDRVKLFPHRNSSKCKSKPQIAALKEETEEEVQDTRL

O=c1c(-c2ccc(O)cc2)coc2cc(O)cc(O)c12 [Genistein, 4',5,7-trihydroxyisoflavone]
average increase in mean-current amplitude by genistein (wt-CFTR [1]): 3.1±0.3 fold
inhibition of protein phosphatase (protein phosphatase): no protein phosphatase has been shown to be inhibited by genistein
increase of ATP-induced currents by genistein (wt-CFTR [2]; 50 μM genistein, n=8): 2.2±0.1 fold
opening of channels in absence of ATP (wt-CFTR [2]; 50 μM genistein, no ATP): did not open wt-CFTR channels in the absence of ATP
channel open time (wt-CFTR [2]; ATP with genistein, stated for both wt- and ΔF508-CFTR): 2,033±173 milliseconds
increase in Po by genistein (wt-CFTR [2]; excised patches, ATP): twofold increase in the Po
enhancement of ΔF508-CFTR channel activity by genistein (ΔF508-CFTR): 19±11 fold
